Data on two compounds can be found in patent publication US20230343467A1, “SYSTEMS AND METHODS FOR IDENTIFICATION OF CELL LINES, BIOMARKERS, AND PATIENTS FOR DRUG RESPONSE PREDICTION” (THERAINDX LIFESCIENCES PVT LTD, priority 2020, published 2023).

For orientation: IC50 means the concentration that gives 50% inhibition.

In one assay the test system is HCC1500. Kind of assay: In vitro potency (IC50) of Palbociclib on breast cancer cell line. Format: cell-based. Conditions: Homo sapiens, read-out: Observed IC50. From the text: (§1) Palbociclib, a targeted inhibitor of CDK4/6 indicated for breast cancer. Identification of Human Breast Cancer cell lines sensitive and resistant to Palbociclib using the method 300 for drug discovery and development, particularly for identification, selection and validation of Human Cancer Cell lines and Biomarkers based on Pharmacological Target(s). A comparison of Predicted Efficacy with Observed Efficacy in cell lines/patients is provided. The pharmacological target is Ser/Thr-kinase component of cyclin D-CDK4/6, which inhibits CDK4/6 phosphorylation of retinoblastoma (RB) protein family (RB1). The phenotypic end point of which is the inhibition of cell proliferation. Further, the Breast Cancer Cell Lines are selected based on the multi-omics and pathway regulator status. […] The predicted response (sensitivity or resistance to Palbociclib) was compared with cell line in vitro potency data (IC50) of Palbociclib. The predicted responses were in agreement with observed data (IC50) for Palbociclib's activity on various Human Breast Cancer cell lines. Table 6a and 6b show the comparison of predicted response values, for both sensitive and resistant to Palbociclib, with observed data.

The next assay has as its system MDAMB468. The description is as above. Conditions: Homo sapiens, MDA-MB-468, read-out: Observed IC50. Format: cell-based.
From the text: as §1

Another assay has as its system MDAMB361. The description is as above. Format: cell-based. The settings on record: Homo sapiens, MDA-MB-361, read-out: Observed IC50.
From the text: as §1

For another assay, the system named is MDAMB231. Described as above. Format: cell-based. Conditions: Homo sapiens, MDA-MB-231, read-out: Observed IC50.
From the text: as §1

The subject of a further assay is MDAMB157. The description is as above. Format: cell-based. The settings on record: Homo sapiens, MDA-MB-157, read-out: Observed IC50.
From the text: as §1

A further assay has as its system HCC1569. Described as above. The settings on record: Homo sapiens, read-out: Observed IC50. Format: cell-based.
From the text: as §1

A further assay deals with MCF7. The assay is described as above. Format: cell-based. The settings on record: Homo sapiens, read-out: Observed IC50.
From the text: as §1

The next assay concerns DU4475. Described as above. Type of assay: cell-based. Conditions: Homo sapiens, DU-4475, read-out: Observed IC50.
From the text: as §1

A further assay deals with HCC2157. The assay is described as above. Type of assay: cell-based. The settings on record: Homo sapiens, read-out: Observed IC50.
From the text: as §1

The subject of another assay is EFM19. Described as above. Format: cell-based. Conditions: Homo sapiens, EFM-19, read-out: Observed IC50.
From the text: as §1

Assay [1] concerns cell line population with amplified ABCB4. In words: Response curves (IC50 values) of cell line populations, transporter amplified vs wildtype, vincristine. Conditions: IC50 values for 530 cell lines from Cancerrx. The text has this: (§2) The drug transporter identification module 205 allows identification of co-relating genomic factors such as factors affecting drug transporters, transporter genes, or any alterations therein such as transporter gene amplification including copy number alterations ([…]), increased m-RNA expressions, etc. particularly associated with multidrug resistance (MDR) development. The drug transporter identification module 205 allows identifying drug transporter factors that impact the efficacy of the drug of interest using in vitro sensitivity data, during pre-clinical phase of drug development. […] Drug transporters such as solute carrier (SLC) family and ATP-binding cassette (ABC) family are known to function as drug efflux pumps which contribute towards drug resistance and reduced bioavailability. The method, in various embodiments herein use in vitro sensitivity data in identification of MDR transporter genes during pre-clinical phase of drug development. In an embodiment, in vitro sensitivity data for chemo therapeutic drug, vincristine (particularly cell line-specific IC50 values for 530 cell lines), from cancerrx (database of genomics of drug sensitivity), and cell multi-omics characteristics, from Cancer Cell Line Encyclopedia (CCLE) were used as inputs for the stratification algorithm. […]

Assay [2] deals with cell line population with amplified ABCB1. Described as above. Conditions: IC50 values for 530 cell lines from Cancerrx.
From the text: as §2

For `CC(=O)c1c(C)c2cnc(Nc3ccc(N4CCNCC4)cn3)nc2n(C2CCCC2)c1=O` [Palbociclib], the 50% inhibitory concentration (IC50) is 45 nM in the assay on HCC1500; greater than 1000 nM in the assay with MDAMB468; 44 nM in the assay on MDAMB361; 432 nM with MDAMB231; greater than 1000 nM with MDAMB157; greater than 1000 nM with HCC1569. In addition, the IC50 is 148 nM with MCF7, greater than 1000 nM with DU4475, greater than 1000 nM with HCC2157 and 27 nM in the assay with EFM19.

For the compound `CC[C@]1(O)C[C@H]2CN(CCc3c([nH]c4ccccc34)[C@@](C(=O)OC)(c3cc4c(cc3OC)N(C=O)[C@H]3[C@@](O)(C(=O)OC)[C@H](OC(C)=O)[C@]5(CC)C=CCN6CC[C@]43[C@@H]65)C2)C1` [vincristine], the “Efficacy in cell line population with ABCB4 amplification compared to wildtype (median of response curves)” value in [1] is “lower efficacy”. Also, the “Efficacy in cell line population with ABCB1 amplification compared to wildtype (median of response curves)” value in assay [2] is listed as “lesser efficacy”.
